Tested on: Energy system protein genes
Experiment: DNA chip mRNA expression in yeast, energy system protein genes (Table 4)
Assay type: cell-based, Saccharomyces cerevisiae S288C
How it was run: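 Measured as treated-to-untreated fluorescence ratio on a full-genome yeast DNA chip. Cells (S288C, YPD, 25° C.) were exposed in log phase for two hours to one chemical, dosed to curb growth without killing.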

[Cl][Cd][Cl] [(2), CdCl2]
The level of expressed mRNA in the presence of chemical substance/The level of expressed mRNA in the absence of chemical substance (yeast gene YAL060W): 1.8
The level of expressed mRNA in the presence of chemical substance/The level of expressed mRNA in the absence of chemical substance (yeast gene YBL058W, cells incubated two hours with the chemical substance): 1.5
The level of expressed mRNA in the presence of chemical substance/The level of expressed mRNA in the absence of chemical substance (yeast gene YBL099W, cells incubated two hours with the chemical substance): 0.9
The level of expressed mRNA in the presence of chemical substance/The level of expressed mRNA in the absence of chemical substance (yeast gene YBR001C, cells incubated two hours with the chemical substance): 1.4
The level of expressed mRNA in the presence of chemical substance/The level of expressed mRNA in the absence of chemical substance (yeast gene YBR185C, cells incubated two hours with the chemical substance): 1.0
The level of expressed mRNA in the presence of chemical substance/The level of expressed mRNA in the absence of chemical substance (yeast gene YBR221C, cells incubated two hours with the chemical substance): 0.7
The level of expressed mRNA in the presence of chemical substance/The level of expressed mRNA in the absence of chemical substance (yeast gene YCL040W): 5.6
The level of expressed mRNA in the presence of chemical substance/The level of expressed mRNA in the absence of chemical substance (yeast gene YCR012W): 1.5
The level of expressed mRNA in the presence of chemical substance/The level of expressed mRNA in the absence of chemical substance (yeast gene YCR046C, cells incubated two hours with the chemical substance): 1.2
The level of expressed mRNA in the presence of chemical substance/The level of expressed mRNA in the absence of chemical substance (yeast gene YCR105W, cells incubated two hours with the chemical substance): 1.2
The level of expressed mRNA in the presence of chemical substance/The level of expressed mRNA in the absence of chemical substance (yeast gene YDL021W): 1.7
The level of expressed mRNA in the presence of chemical substance/The level of expressed mRNA in the absence of chemical substance (yeast gene YDL067C, cells incubated two hours with the chemical substance): 1.0
The level of expressed mRNA in the presence of chemical substance/The level of expressed mRNA in the absence of chemical substance (yeast gene YDL078C, cells incubated two hours with the chemical substance): 1.1
The level of expressed mRNA in the presence of chemical substance/The level of expressed mRNA in the absence of chemical substance (yeast gene YDL107W, cells incubated two hours with the chemical substance): 1.3
The level of expressed mRNA in the presence of chemical substance/The level of expressed mRNA in the absence of chemical substance (yeast gene YDL174C): 1.8
The level of expressed mRNA in the presence of chemical substance/The level of expressed mRNA in the absence of chemical substance (yeast gene YDL181W, cells incubated two hours with the chemical substance): 1.8
The level of expressed mRNA in the presence of chemical substance/The level of expressed mRNA in the absence of chemical substance (yeast gene YDR001C): 2.2
The level of expressed mRNA in the presence of chemical substance/The level of expressed mRNA in the absence of chemical substance (yeast gene YDR050C, cells incubated two hours with the chemical substance): 1.3
The level of expressed mRNA in the presence of chemical substance/The level of expressed mRNA in the absence of chemical substance (yeast gene YDR079W, cells incubated two hours with the chemical substance): 1.1
The level of expressed mRNA in the presence of chemical substance/The level of expressed mRNA in the absence of chemical substance (yeast gene YDR178W, cells incubated two hours with the chemical substance): 2.0
The level of expressed mRNA in the presence of chemical substance/The level of expressed mRNA in the absence of chemical substance (yeast gene YDR231C): 1.6
The level of expressed mRNA in the presence of chemical substance/The level of expressed mRNA in the absence of chemical substance (yeast gene YDR298C, cells incubated two hours with the chemical substance): 1.2
The level of expressed mRNA in the presence of chemical substance/The level of expressed mRNA in the absence of chemical substance (yeast gene YDR377W, cells incubated two hours with the chemical substance): 1.1
The level of expressed mRNA in the presence of chemical substance/The level of expressed mRNA in the absence of chemical substance (yeast gene YDR529C, cells incubated two hours with the chemical substance): 1.0
The level of expressed mRNA in the presence of chemical substance/The level of expressed mRNA in the absence of chemical substance (yeast gene YEL024W, cells incubated two hours with the chemical substance): 0.9
The level of expressed mRNA in the presence of chemical substance/The level of expressed mRNA in the absence of chemical substance (yeast gene YEL039C, cells incubated two hours with the chemical substance): 0.7
The level of expressed mRNA in the presence of chemical substance/The level of expressed mRNA in the absence of chemical substance (yeast gene YER178W): 0.9
The level of expressed mRNA in the presence of chemical substance/The level of expressed mRNA in the absence of chemical substance (yeast gene YFL057C): 5.9
The level of expressed mRNA in the presence of chemical substance/The level of expressed mRNA in the absence of chemical substance (yeast gene YFR053C): 1.4
The level of expressed mRNA in the presence of chemical substance/The level of expressed mRNA in the absence of chemical substance (yeast gene YGL018C, cells incubated two hours with the chemical substance): 1.0
The level of expressed mRNA in the presence of chemical substance/The level of expressed mRNA in the absence of chemical substance (yeast gene YGL062W): 1.3
The level of expressed mRNA in the presence of chemical substance/The level of expressed mRNA in the absence of chemical substance (yeast gene YGL187C, cells incubated two hours with the chemical substance): 0.8
The level of expressed mRNA in the presence of chemical substance/The level of expressed mRNA in the absence of chemical substance (yeast gene YGL191W, cells incubated two hours with the chemical substance): 1.6
The level of expressed mRNA in the presence of chemical substance/The level of expressed mRNA in the absence of chemical substance (yeast gene YGL205W, cells incubated two hours with the chemical substance): 0.9
The level of expressed mRNA in the presence of chemical substance/The level of expressed mRNA in the absence of chemical substance (yeast gene YGL256W, cells incubated two hours with the chemical substance): 5.3
The level of expressed mRNA in the presence of chemical substance/The level of expressed mRNA in the absence of chemical substance (yeast gene YGR043C): 3.7
The level of expressed mRNA in the presence of chemical substance/The level of expressed mRNA in the absence of chemical substance (yeast gene YGR062C, cells incubated two hours with the chemical substance, 25° C., YPD medium): 1.0
The level of expressed mRNA in the presence of chemical substance/The level of expressed mRNA in the absence of chemical substance (yeast gene YGR087C, cells incubated two hours with the chemical substance): 15.0
The level of expressed mRNA in the presence of chemical substance/The level of expressed mRNA in the absence of chemical substance (yeast gene YGR174C, cells incubated two hours with the chemical substance): 1.6
The level of expressed mRNA in the presence of chemical substance/The level of expressed mRNA in the absence of chemical substance (yeast gene YGR192C): 1.0
The level of expressed mRNA in the presence of chemical substance/The level of expressed mRNA in the absence of chemical substance (yeast gene YGR244C): 1.2
The level of expressed mRNA in the presence of chemical substance/The level of expressed mRNA in the absence of chemical substance (yeast gene YGR254W): 1.3
The level of expressed mRNA in the presence of chemical substance/The level of expressed mRNA in the absence of chemical substance (yeast gene YHR179W): 2.3
The level of expressed mRNA in the presence of chemical substance/The level of expressed mRNA in the absence of chemical substance (yeast gene YIL160C): 2.4
The level of expressed mRNA in the presence of chemical substance/The level of expressed mRNA in the absence of chemical substance (yeast gene YIR031C, cells incubated two hours with the chemical substance): 1.6
The level of expressed mRNA in the presence of chemical substance/The level of expressed mRNA in the absence of chemical substance (yeast gene YJL052W): 0.9
The level of expressed mRNA in the presence of chemical substance/The level of expressed mRNA in the absence of chemical substance (yeast gene YJL121C, cells incubated two hours with the chemical substance): 0.5
The level of expressed mRNA in the presence of chemical substance/The level of expressed mRNA in the absence of chemical substance (yeast gene YJL166W, cells incubated two hours with the chemical substance): 1.5
The level of expressed mRNA in the presence of chemical substance/The level of expressed mRNA in the absence of chemical substance (yeast gene YJL216C, cells incubated two hours with the chemical substance): 4.7
The level of expressed mRNA in the presence of chemical substance/The level of expressed mRNA in the absence of chemical substance (yeast gene YJR009C): 1.7

— patent publication US8192962B2, “Processes for detecting toxic substances” (Daikin Industries, Ltd., priority 2001, dated 2012)
